# According to patent US20230053607A1, “PESTICIDALLY ACTIVE FUSED BICYCLIC HETEROAROMATIC AMINO COMPOUNDS” (SYNGENTA CROP PROTECTION AG, priority 2019, published 2023):
# What was measured:
# [1] = tested on: Diabrotica balteata; assay: Diabrotica balteata (corn root worm), maize sprouts sprayed, L2 larvae; format: in vivo; details: 96 h, application rate 200 ppm, 4 days after infestation, read-out: control in at least one of the categories (mortality or growth inhibition)
# Protocol: Maize sprouts placed onto an agar layer in 24-well microtiter plates were treated with aqueous test solutions prepared from 10′000 ppm DMSO stock solutions by spraying. After drying, the plates were infested with L2 larvae (6 to 10 per well). The samples were assessed for mortality and growth inhibition in comparison to untreated samples 4 days after infestation. The following compounds gave an effect of at least 80% control in at least one of the categories (mortality or growth inhibition) at an application rate of 200 ppm: P1, P2, P3, P6, P7, P8, P10.
# [2] = tested on: Spodoptera littoralis; assay: Spodoptera littoralis (Egyptian cotton leaf worm), cotton leaf discs sprayed, L1 larvae; format: in vivo; details: foliar, 72 h, application rate 200 ppm, 3 days after infestation, read-out: control in at least one of the categories (mortality, anti-feedant effect or growth inhibition)
# Protocol: Cotton leaf discs were placed onto agar in 24-well microtiter plates and sprayed with aqueous test solutions prepared from 10′000 ppm DMSO stock solutions. After drying the leaf discs were infested with five L1 larvae. The samples were assessed for mortality, anti-feeding effect, and growth inhibition in comparison to untreated samples 3 days after infestation. Control of Spodoptera littoralis by a test sample is given when at least one of the categories mortality, anti-feedant effect, and growth inhibition is higher than the untreated sample.
# [3] = tested on: Plutella xylostella; assay: Plutella xylostella (diamondback moth), 96-well artificial diet, eggs; format: in vivo; details: 216 h, application rate 500 ppm, 9 days after infestation, 96-well plates, read-out: control (mortality)
# Protocol: 96-well microtiter plates containing artificial diet were treated with aqueous test solutions, prepared from 10′000 ppm DMSO stock solutions, by a liquid handling robot. After drying, eggs (˜30 per well) were infested onto a netted lid which was suspended above the diet. The eggs hatch and L1 larvae move down to the diet. The samples were assessed for mortality 9 days after infestation.
# [4] = tested on: Chilo suppressalis; assay: Chilo suppressalis (striped rice stemborer), artificial diet, L2 larvae; format: in vivo; details: 144 h, application rate 200 ppm, 6 days after infestation, read-out: control in at least one of the categories (mortality, anti-feedant effect or growth inhibition)
# Protocol: 24-well microtiter plates with artificial diet were treated with aqueous test solutions prepared from 10′000 ppm DMSO stock solutions by pipetting. After drying, the plates were infested with L2 larvae (6-8 per well). The samples were assessed for mortality, anti-feeding effect, and growth inhibition in comparison to untreated samples 6 days after infestation. Control of Chilo suppressalis by a test sample is given when at least one of the categories mortality, anti-feedant effect, and growth inhibition is higher than the untreated sample.
# [5] = tested on: Plutella xylostella; assay: Plutella xylostella (diamond back moth), 24-well artificial diet, eggs; format: in vivo; details: 192 h, application rate 200 ppm, 8 days after infestation, 24-well plates, read-out: control in at least one of the categories (mortality or growth inhibition)
# Protocol: 24-well microtiter plates with artificial diet were treated with aqueous test solutions prepared from 10′000 ppm DMSO stock solutions by pipetting. After drying, Plutella eggs were pipetted through a plastic stencil onto a gel blotting paper and the plate was closed with it. The samples were assessed for mortality and growth inhibition in comparison to untreated samples 8 days after infestation. The following compounds gave an effect of at least 80% control in at least one of the categories (mortality or growth inhibition) at an application rate of 200 ppm: P1, P2, P3, P7, P10.
# [6] = tested on: Myzus persicae; assay: Myzus persicae (green peach aphid): feeding/contact activity, sunflower leaf discs; format: in vivo; details: foliar, 144 h, application rate 200 ppm, 6 days after infestation, mixed ages
# Protocol: Sunflower leaf discs were placed onto agar in a 24-well microtiter plate and sprayed with aqueous test solutions prepared from 10′000 ppm DMSO stock solutions. After drying, the leaf discs were infested with an aphid population of mixed ages. The samples were assessed for mortality 6 days after infestation.
SMILES,percent control (mortality or growth inhibition) at 200 ppm [1] [%],"percent control (mortality, anti-feedant effect or growth inhibition) at 200 ppm [2] [%]",percent control (mortality or growth inhibition) at 200 ppm [5] [%],melting point [°C],further results
"CC(c1nccnc1-c1ncccn1)N(CC1CC1)c1nn(C)c2c(Cl)cc(C(F)(F)F)cc12 (centres unmarked) [P8, 7-chloro-N-(cyclopropylmethyl)-1-methyl-N-[1-(3-pyrimidin-2-ylpyrazin-2-yl)ethyl]-5-(trifluoromethyl)indazol-3-amine]",≥ 80,≥ 80,,,mortality at 500 ppm [3]: ≥ 80%
"CC(Nc1nn(C)c2c(C(F)(F)F)cc(C(F)(F)F)cc12)c1nc(Br)nn1-c1ncccn1 (centres unmarked) [P10, N-[1-(5-bromo-2-pyrimidin-2-yl-1,2,4-triazol-3-yl)ethyl]-1-methyl-5,7-bis(trifluoromethyl)indazol-3-amine]",≥ 80,,≥ 80,,"percent control (mortality, anti-feedant effect or growth inhibition) at 200 ppm [4]: ≥ 80%; mortality at 500 ppm [3]: ≥ 80%"
"CC(Nc1snc2c(C(F)(F)F)cc(C(F)(F)F)cc12)c1ncnn1-c1ncccn1 (centres unmarked) [P1, N-[1-(2-pyrimidin-2-yl-1,2,4-triazol-3-yl)ethyl]-5,7-bis(trifluoromethyl)-2,1-benzothiazol-3-amine]",≥ 80,≥ 80,≥ 80,,
"C[C@H](Nc1snc2c(C(F)(F)F)cc(C(F)(F)F)cc12)c1ncnn1-c1ccc(C#N)cn1 [P2, 6-[5-[(1S)-1-[[5,7-bis(trifluoromethyl)-2,1-benzothiazol-3-yl]amino]ethyl]-1,2,4-triazol-1-yl]pyridine-3-carbonitrile]",≥ 80,≥ 80,≥ 80,,
"CC(Nc1noc2ccc(Br)cc12)c1ncnn1-c1ccc(C#N)cn1 (centres unmarked) [P16, 6-[5-[1-[(5-bromo-1,2-benzoxazol-3-yl)amino]ethyl]-1,2,4-triazol-1-yl]pyridine-3-carbonitrile]",,,,175 to 177,
"CC(Nc1noc2ccc(Br)cc12)c1ncnn1-c1ncccn1 (centres unmarked) [P17, 5-bromo-N-[1-(2-pyrimidin-2-yl-1,2,4-triazol-3-yl)ethyl]-1,2-benzoxazol-3-amine]",,,,233 to 235,
"CC(Nc1noc2c(F)cc(F)cc12)c1nccnc1-n1nccn1 (centres unmarked) [P13, 5,7-difluoro-N-[1-[3-(triazol-2-yl)pyrazin-2-yl]ethyl]-1,2-benzoxazol-3-amine]",,,,199 to 201,
"CC(Nc1c(C#N)sc2c(C(F)(F)F)cc(C(F)(F)F)cc12)c1ncnn1-c1ccc(C#N)cn1 (centres unmarked) [P4, 6-[5-[1-[[2-cyano-5,7-bis(trifluoromethyl)benzothiophen-3-yl]amino]ethyl]-1,2,4-triazol-1-yl]pyridine-3-carbonitrile]",,,,192 to 194,
"CC(Nc1noc2c(F)cc(F)cc12)c1nccnc1-n1ccnn1 (centres unmarked) [P12, 5,7-difluoro-N-[1-[3-(triazol-1-yl)pyrazin-2-yl]ethyl]-1,2-benzoxazol-3-amine]",,,,,mortality at 200 ppm [6]: ≥ 80%
"CC(Nc1nn(C)c2c(Cl)cc(C(F)(F)F)cc12)c1nc(Br)nn1-c1ncccn1 (centres unmarked) [P11, N-[1-(5-bromo-2-pyrimidin-2-yl-1,2,4-triazol-3-yl)ethyl]-7-chloro-1-methyl-5-(trifluoromethyl)indazol-3-amine]",,,,262 to 264,
"COC(=O)c1cc(Cl)cc2c(N[C@@H](C)c3ncnn3-c3ccc(C#N)cn3)csc12 [P18, methyl 5-chloro-3-[[(1S)-1-[2-(5-cyano-2-pyridyl)-1,2,4-triazol-3-yl]ethyl]amino]benzothiophene-7-carboxylate]",,,,,mortality at 500 ppm [3]: ≥ 80%
"COC(=O)c1sc2c(C(F)(F)F)cc(C(F)(F)F)cc2c1NC(C)c1ncnn1-c1ccc(C#N)cn1 (centres unmarked) [P5, methyl 3-[1-[2-(5-cyano-2-pyridyl)-1,2,4-triazol-3-yl]ethylamino]-5,7-bis(trifluoromethyl)benzothiophene-2-carboxylate]",,,,195 to 197,
"CC(Nc1nn(C)c2c(C(F)(F)F)cc(C(F)(F)F)cc12)c1ncnn1-c1ncccn1 (centres unmarked) [P6, 1-methyl-N-[1-(2-pyrimidin-2-yl-1,2,4-triazol-3-yl)ethyl]-5,7-bis(trifluoromethyl)indazol-3-amine]",≥ 80,≥ 80,,,"percent control (mortality, anti-feedant effect or growth inhibition) at 200 ppm [4]: ≥ 80%"
"CC(c1nccnc1-c1ncccn1)N(CC1CC1)c1nn(C)c2c(C(F)(F)F)cc(C(F)(F)F)cc12 (centres unmarked) [P7, N-(cyclopropylmethyl)-1-methyl-N-[1-(3-pyrimidin-2-ylpyrazin-2-yl)ethyl]-5,7-bis(trifluoromethyl)indazol-3-amine]",≥ 80,≥ 80,≥ 80,,"percent control (mortality, anti-feedant effect or growth inhibition) at 200 ppm [4]: ≥ 80%"
"CC(Nc1noc2c(Cl)cc(C(F)(F)F)cc12)c1nc(Br)nn1-c1ncccn1 (centres unmarked) [P9, N-[1-(5-bromo-2-pyrimidin-2-yl-1,2,4-triazol-3-yl)ethyl]-7-chloro-5-(trifluoromethyl)-1,2-benzoxazol-3-amine]",,,,160 to 163,
"CC(c1ncnn1-c1ccc(C#N)cn1)N(C)c1c(C#N)sc2c(C(F)(F)F)cc(C(F)(F)F)cc12 (centres unmarked) [P3, 6-[5-[1-[[2-cyano-5,7-bis(trifluoromethyl)benzothiophen-3-yl]-methyl-amino]ethyl]-1,2,4-triazol-1-yl]pyridine-3-carbonitrile]",≥ 80,,≥ 80,,"percent control (mortality, anti-feedant effect or growth inhibition) at 200 ppm [4]: ≥ 80%"
